Laboratory results taken from patent US10988523B2, “Modified lipidated Relaxin B chain peptides and their therapeutic use” (Sanofi, priority 2018, dated 2021).
*1 amine or outer side, *2 acyl side, *3 side chain or, on linkers, in order; H or OH if unused. Where a SMILES comes first, the peptide text is derived from it. Side-chain parts run from the residue outwards. [ ]: non-standard residue; d: D form. The star is where a group is joined. γGlu = O=C(O)[C@H](CCC(=O)[*:2])N[*:1]; Stearoyl = CCCCCCCCCCCCCCCCCC(=O)*; Palmitoyl = CCCCCCCCCCCCCCCC(=O)*; αMeK = C[C@](N)(CCCCN)C(=O)O; Nle = CCCC[C@H](N)C(=O)O; AEEA = NCCOCCOCC(=O)O; Aib = CC(C)(N)C(=O)O

Columns and labels:
RXFP1 = target: T1, RXFP1 (Homo sapiens, UniProt Q9HBX9); assay: OVCAR5 cAMP assay (HTRF), RXFP1 agonist activity; format: cell-based; settings: for EC50: OVCAR5 cells, cAMP HTRF, read-out: EC50 (nM), OVCAR 5 cells (cAMP); for Emax: OVCAR-5, maximal cAMP relative to H2-relaxin maximum (100%), read-out: EMax, OVCAR 5 cells (cAMP)
T1 construct: OVCAR5 cells expressing endogenous RXFP1; endogenous in cells; host or cells: OVCAR5 cells
T1 sequence (Q9HBX9 1-757): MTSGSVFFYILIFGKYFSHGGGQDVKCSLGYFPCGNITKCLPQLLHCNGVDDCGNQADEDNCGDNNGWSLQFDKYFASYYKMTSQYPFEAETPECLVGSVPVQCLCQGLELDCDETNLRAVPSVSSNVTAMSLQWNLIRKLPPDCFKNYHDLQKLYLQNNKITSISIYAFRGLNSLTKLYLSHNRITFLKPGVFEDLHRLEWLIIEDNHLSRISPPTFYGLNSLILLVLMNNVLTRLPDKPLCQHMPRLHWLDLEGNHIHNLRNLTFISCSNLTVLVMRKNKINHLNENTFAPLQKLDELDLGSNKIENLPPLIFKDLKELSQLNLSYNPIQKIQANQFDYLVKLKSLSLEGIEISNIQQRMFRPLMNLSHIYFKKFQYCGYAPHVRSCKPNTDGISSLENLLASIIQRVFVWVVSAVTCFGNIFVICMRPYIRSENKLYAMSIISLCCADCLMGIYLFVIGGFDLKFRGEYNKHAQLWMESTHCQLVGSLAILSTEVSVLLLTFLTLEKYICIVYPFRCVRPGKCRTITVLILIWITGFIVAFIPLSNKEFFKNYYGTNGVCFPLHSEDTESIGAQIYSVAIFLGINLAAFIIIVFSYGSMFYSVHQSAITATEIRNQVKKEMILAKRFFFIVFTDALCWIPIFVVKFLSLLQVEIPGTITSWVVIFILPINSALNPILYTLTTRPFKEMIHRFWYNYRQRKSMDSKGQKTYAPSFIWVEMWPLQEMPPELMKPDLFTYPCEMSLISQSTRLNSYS
How it was run: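 OVCAR5 cells (endogenous RXFP1) pretreated 40 min at 37° C with 1 mM IBMX, then exposed to peptides in serum-free medium for 30 min at 37° C. Lysate cAMP read by HTRF; EC50 from variable-slope sigmoidal fit; Emax as % of H2-relaxin maximal cAMP in same run.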

[1] = Pharmacokinetic (PK) determination after i.v. or s.c. administration to rats; format: in vivo, Sprague Dawley rats; settings: Sprague Dawley, Rat PK; for C0 / half-life: iv, 1 mg/kg i.v.; for C0: extrapolated plasma concentration at t=0, read-out: C0; for half-life / Cmax / Tmax / bioavailability: plasma; for half-life: read-out: T½ (converted); for Cmax / Tmax: sc, 3 mg/kg s.c.; for bioavailability: subcutaneous, 3 mg/kg s.c. vs 1 mg/kg i.v., dose-corrected AUC ratio
How it was run: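 Sprague Dawley rats received peptide in PBS at 1 mg/kg i.v. or 3 mg/kg s.c., dose corrected for salts, solvent and purity. Plasma analysed by LC/MS after protein precipitation; non-compartmental PK, BLQ values set to zero, F% as dose-corrected s.c./i.v. AUC ratio.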

| EC50 (RXFP1) | Emax (RXFP1) | C0 [1] | half-life [1] | Cmax [1] | Tmax [1] | bioavailability [1] | Structure (SMILES) |
| --- | --- | --- | --- | --- | --- | --- | --- |
| 0.16 nM | 86% | 1800 nM | 1.8 h | 1000 nM | 7 h | 39% | CCCCCCCCCCCCCCCCCC(=O)N[C@@H](CCC(=O)NCCOCCOCC(=O)N[C@@H](CCC(=O)N[C@@H](CCC(=O)NCCOCCOCC(=O)NCCOCCOCC(=O)NCCCC[C@H](NC(=O)[C@H](CCCCNC(C)=O)NC(=O)[C@H](CCCCN)NC(=O)[C@H](CCCNC(=N)N)NC(=O)C(C)(C)NC(=O)[C@H](CO)NC(=O)[C@H](Cc1c[nH]c2ccccc12)NC(=O)[C@@H](NC(=O)[C@H](CO)NC(=O)[C@H](CCCC)NC(=O)CNC(=O)[C@H](CCC(=O)O)NC(=O)C(C)(C)NC(=O)C(C)(C)NC(=O)[C@@H](NC(=O)[C@H](CCCCNC(C)=O)NC(=O)[C@H](C)NC(=O)[C@H](CCCNC(=N)N)NC(=O)[C@@H](NC(=O)[C@H](CCCCN)NC(=O)[C@H](CCC(=O)O)NC(=O)[C@H](CCCNC(=N)N)NC(=O)CNC(=O)[C@H](CCC(=O)O)NC(=O)[C@H](CC(C)C)NC(C)=O)C(C)C)[C@@H](C)CC)[C@@H](C)O)C(N)=O)C(=O)O)C(=O)O)C(=O)O [compound 101] (Ac-LEGREKVRAK(Ac)I[Aib][Aib]EG[Nle]STWS[Aib]RKK(Ac)K([AEEA-AEEA-γGlu-γGlu-AEEA-γGlu-Stearoyl])-NH2) |
| 0.08 nM | 80% | 4250 nM | 1.16 h | 1450 nM | 8 h | 78% | CCCCCCCCCCCCCCCCCC(=O)N[C@@H](CCC(=O)NCCOCCOCC(=O)N[C@@H](CCC(=O)N[C@@H](CCC(=O)N[C@@H](CCC(=O)NCCOCCOCC(=O)NCCOCCOCC(=O)NCCCC[C@H](NC(=O)[C@H](CCCCN)NC(=O)[C@H](CCCCN)NC(=O)[C@H](CCCNC(=N)N)NC(=O)C(C)(C)NC(=O)[C@H](CO)NC(=O)[C@H](Cc1c[nH]c2ccccc12)NC(=O)[C@@H](NC(=O)[C@H](CO)NC(=O)[C@H](CCCC)NC(=O)CNC(=O)[C@H](CCC(=O)O)NC(=O)C(C)(C)NC(=O)C(C)(C)NC(=O)[C@@H](NC(=O)[C@H](CCCCNC(C)=O)NC(=O)[C@H](C)NC(=O)[C@H](CCCNC(=N)N)NC(=O)[C@@H](NC(=O)[C@H](CCCCN)NC(=O)[C@H](CCC(=O)O)NC(=O)[C@H](CCCNC(=N)N)NC(=O)CNC(=O)[C@H](CCC(=O)O)NC(=O)[C@H](CC(C)C)NC(C)=O)C(C)C)[C@@H](C)CC)[C@@H](C)O)C(N)=O)C(=O)O)C(=O)O)C(=O)O)C(=O)O [compound 102] (Ac-LEGREKVRAK(Ac)I[Aib][Aib]EG[Nle]STWS[Aib]RKKK([AEEA-AEEA-γGlu-γGlu-γGlu-AEEA-γGlu-Stearoyl])-NH2) |
| 0.32 nM | 88% | 3500 nM | 3.3 h | 2200 nM | 8 h | 63% | CCCCCCCCCCCCCCCCCC(=O)N[C@@H](CCC(=O)N[C@@H](CCC(=O)N[C@@H](CCC(=O)NCCOCCOCC(=O)NCCOCCOCC(=O)NCCOCCOCC(=O)NCCCC[C@H](NC(=O)[C@H](CCCCNC(C)=O)NC(=O)[C@H](CCCCN)NC(=O)[C@H](CCCNC(=N)N)NC(=O)C(C)(C)NC(=O)[C@H](CO)NC(=O)[C@H](Cc1ccccc1)NC(=O)[C@@H](NC(=O)[C@H](CO)NC(=O)[C@H](CCCC)NC(=O)CNC(=O)[C@H](CCC(=O)O)NC(=O)C(C)(C)NC(=O)C(C)(C)NC(=O)[C@@H](NC(=O)[C@H](CCCCNC(C)=O)NC(=O)[C@H](C)NC(=O)[C@H](CCCNC(=N)N)NC(=O)[C@@H](NC(=O)[C@H](CCCCN)NC(=O)[C@H](CCC(=O)O)NC(=O)[C@H](CCCNC(=N)N)NC(=O)CNC(=O)[C@H](CCC(=O)O)NC(=O)[C@H](CC(C)C)NC(C)=O)C(C)C)[C@@H](C)CC)[C@@H](C)O)C(N)=O)C(=O)O)C(=O)O)C(=O)O [compound 112] (Ac-LEGREKVRAK(Ac)I[Aib][Aib]EG[Nle]STFS[Aib]RKK(Ac)K([AEEA-AEEA-AEEA-γGlu-γGlu-γGlu-Stearoyl])-NH2) |
| 0.26 nM | 92% | 2500 nM | 6.3 h | 1390 nM | 8 h | 82% | CCCCCCCCCCCCCCCC(=O)N[C@@H](CCC(=O)N[C@@H](CCC(=O)N[C@@H](CCC(=O)N[C@@H](CCC(=O)NCCCC[C@H](NC(=O)COCCOCCNC(=O)COCCOCCNC(=O)COCCOCCNC(=O)COCCOCCNC(=O)[C@H](CCCCNC(C)=O)NC(=O)[C@H](CCCCN)NC(=O)[C@H](CCCNC(=N)N)NC(=O)[C@](C)(CCCCN)NC(=O)[C@H](CO)NC(=O)[C@H](Cc1c[nH]c2ccccc12)NC(=O)[C@@H](NC(=O)[C@H](CO)NC(=O)[C@H](CCCC)NC(=O)CNC(=O)[C@H](CCC(=O)O)NC(=O)C(C)(C)NC(=O)C(C)(C)NC(=O)[C@@H](NC(=O)[C@H](CCCCNC(C)=O)NC(=O)[C@H](C)NC(=O)[C@H](CCCNC(=N)N)NC(=O)[C@@H](NC(=O)[C@H](CCCCN)NC(=O)[C@H](CCC(=O)O)NC(=O)[C@H](CCCNC(=N)N)NC(=O)CNC(=O)[C@H](CCC(=O)O)NC(=O)[C@H](CC(C)C)NC(C)=O)C(C)C)[C@@H](C)CC)[C@@H](C)O)C(N)=O)C(=O)O)C(=O)O)C(=O)O)C(=O)O [compound 131] (Ac-LEGREKVRAK(Ac)I[Aib][Aib]EG[Nle]STWS[αMeK]RKK(Ac)[AEEA][AEEA][AEEA][AEEA]K([γGlu-γGlu-γGlu-γGlu-Palmitoyl])-NH2) |
| 0.03 nM | 92% | 3000 nM | 2.9 h | 1870 nM | 8 h | 86% | CCCCCCCCCCCCCCCC(=O)N[C@@H](CCC(=O)NCCCC[C@H](NC(=O)CC[C@H](NC(=O)CC[C@H](NC(=O)CC[C@H](NC(=O)COCCOCCNC(=O)COCCOCCNC(=O)COCCOCCNC(=O)COCCOCCNC(=O)[C@H](CCCCNC(C)=O)NC(=O)[C@H](CCCCN)NC(=O)[C@H](CCCNC(=N)N)NC(=O)[C@](C)(CCCCN)NC(=O)[C@H](CO)NC(=O)[C@H](Cc1c[nH]c2ccccc12)NC(=O)[C@@H](NC(=O)[C@H](CO)NC(=O)[C@H](CCCC)NC(=O)CNC(=O)[C@H](CCC(=O)O)NC(=O)C(C)(C)NC(=O)C(C)(C)NC(=O)[C@@H](NC(=O)[C@H](CCCCNC(C)=O)NC(=O)[C@H](C)NC(=O)[C@H](CCCNC(=N)N)NC(=O)[C@@H](NC(=O)[C@H](CCCCN)NC(=O)[C@H](CCC(=O)O)NC(=O)[C@H](CCCNC(=N)N)NC(=O)CNC(=O)[C@H](CCC(=O)O)NC(=O)[C@H](CC(C)C)NC(C)=O)C(C)C)[C@@H](C)CC)[C@@H](C)O)C(=O)O)C(=O)O)C(=O)O)C(N)=O)C(=O)O [compound 136] (Ac-LEGREKVRAK(Ac)I[Aib][Aib]EG[Nle]STWS[αMeK]RKK(Ac)[AEEA][AEEA][AEEA][AEEA][γGlu][γGlu][γGlu]K([γGlu-Palmitoyl])-NH2) |
| 0.4 nM | 99% | 3440 nM | 5.4 h | 1670 nM | 8 h | 70% | CCCCCCCCCCCCCCCC(=O)N[C@@H](CCC(=O)NCCCC[C@H](NC(=O)CC[C@H](NC(=O)CC[C@H](NC(=O)CC[C@H](NC(=O)COCCOCCNC(=O)COCCOCCNC(=O)COCCOCCNC(=O)COCCOCCNC(=O)[C@H](CCCCNC(C)=O)NC(=O)[C@H](CCCCN)NC(=O)[C@H](CCCNC(=N)N)NC(=O)[C@](C)(CCCCN)NC(=O)[C@H](CO)NC(=O)[C@H](Cc1ccccc1)NC(=O)[C@@H](NC(=O)[C@H](CO)NC(=O)[C@H](CCCC)NC(=O)CNC(=O)[C@H](CCC(=O)O)NC(=O)C(C)(C)NC(=O)C(C)(C)NC(=O)[C@@H](NC(=O)[C@H](CCCCNC(C)=O)NC(=O)[C@H](C)NC(=O)[C@H](CCCNC(=N)N)NC(=O)[C@@H](NC(=O)[C@H](CCCCN)NC(=O)[C@H](CCC(=O)O)NC(=O)[C@H](CCCNC(=N)N)NC(=O)CNC(=O)[C@H](CCC(=O)O)NC(=O)[C@H](CC(C)C)NC(C)=O)C(C)C)[C@@H](C)CC)[C@@H](C)O)C(=O)O)C(=O)O)C(=O)O)C(N)=O)C(=O)O [compound 145] (Ac-LEGREKVRAK(Ac)I[Aib][Aib]EG[Nle]STFS[αMeK]RKK(Ac)[AEEA][AEEA][AEEA][AEEA][γGlu][γGlu][γGlu]K([γGlu-Palmitoyl])-NH2) |
